Article PMC5756575, “In Vitro Biotransformation, Safety, and Chemopreventive Action of Novel 8-Methoxy-Purine-2,6-Dione Derivatives” (Applied Biochemistry and Biotechnology, 2017)
Like-named read-outs stand apart in the source and are kept apart here.

What was measured:
[1] = DPPH radical scavenging assay; assay type: biochemical; conditions: DPPH 250 μM, compound at 250 μM, 30 min, 517 nm
Protocol: The capacity of selected 8-methoxy-purine-2,6-dione derivatives to scavenge stable free radical DPPH was assessed. A blank and a triplicate of 10 different concentrations of each compound or of each positive control (gallic and ascorbic acids) were evaluated in the experiment. Aforesaid concentrations of compounds were obtained by dilution from a 1000 μM stock solution in methanol. One hundred microliters of DPPH stock solution were added to each well; later, 100 μL of the corresponding compound dilution were added. Consequently, the final concentration of DPPH radical was 250 μM, whereas the final concentrations of the tested compounds or positive controls were 500, 375, 250, 125, 62.5, 50, 37.5, 25, 12.5, and 6.25 μM. Afterwards, the 96-plate was wrapped with aluminum and stored in the dark 30 min prior to the spectrophotometric measurement at a 517-nm wavelength. The obtained absorbances were used to calculate the percentage of radical scavenged by the action of a compound or of a positive control at each concentration using a formula 100 × (A 0 − A m)/A 0. In this equation A m is the average absorbance of the three triplicates measured at the corresponding concentration and A 0 is the average absorbance of DPPH radical in the absence of the tested substance. Knowing inhibition data at the different concentrations, IC50 was calculated when applicable.

rat liver microsomes = test: Microsomal stability assay; assay type: in vitro ADME; conditions: 97.88 versus 302.00 μL/min/mg
Protocol: (§1) Compounds 1 and 3 were studied in a biotransformation assay using rat liver microsomes following procedures described previously. The reagents used in this assay were levallorphan (internal standard) and NADPH-regenerating system, which contained phosphate buffer (pH 7.4), NADP^+, glucose-6-phosphate, and glucose-6-phosphate dehydrogenase. The final protein concentration in the assay was 0.4 mg/mL. Compounds 1 and 3 were tested at a final concentration of 20 μM.
(§2) The amount of a parental compound remaining in a solution after biotransformation was monitored using LC-MS/MS as described previously in “Cunninghamella Biotransformation Assay.” Graphs representing ln of percentage of parent compound remaining versus incubation time were drawn to calculate in vitro half-time (t1/2) from the slope of linear regression. To obtain intrinsic clearance (Clint) of a tested compound in rat liver microsomal assay, t1/2 previously calculated was substituted at the equation Clint = [(Vmic/Pmic) × 0.693/t1/2], being Vmic and Pmic the volume of incubation in microliters and the amount of incubated protein in milligrams, respectively.
(§3) Agilent 1100 HPLC system (Agilent Technologies, Waldbronn, Germany) equipped with a Xbridge™ C18 analytical column (2.1 × 30 mm, […]; Waters, Dublin, Ireland) was used in the chromatographic separation of LC-MS/MS analysis. An elution gradient of acetonitrile and water, with 0.1% of formic acid, was used as a mobile phase. MS spectra were taken at Applied Biosystems MDS Sciex API 200 triple quadrupole mass analyzer (Concord, Ontario, Canada) with an electrospray ionization (ESI) interface between HPLC and MS.

[2] = Microsomal stability assay; assay type: in vitro ADME, rat; conditions: pH 7.4, rat liver microsomes, 20 μM, 0.4 mg/mL protein
Protocol: as §1, §2, §3

mice [3] = test system: mice; parameters: method as in PMID 25443727, PMID 25560569; conditions: writhing syndrome test in mice; cited from earlier work
mice [4] = test system: mice; parameters: method as in PMID 25443727, PMID 25560569; conditions: formalin test in mice; cited from earlier work

Row | Structure (SMILES) | maximum radical scavenging percentage observed [1] | Clint, fold lower than imipramine (rat liver microsomes) | half-life at 20 μM ([2]; read-out: in vitro half-time (t1/2)) | microsomal CLint at 20 μM ([2]; read-out: intrinsic clearance (Clint)) | fold higher activity than acetylsalicylic acid (mice [3]) | fold higher activity than acetylsalicylic acid (mice [4])
1 | COc1nc2c(c(=O)n(C)c(=O)n2C)n1CCCC(=O)NCc1ccccc1 [Compound 3, N-benzyl-4-(8-methoxy-1,3-dimethyl-2,6-dioxo-purin-7-yl)butanamide] | 6.56% | 3.09 fold | 17.7 min | 97.9 µL/min/mg |  | 
2 | COc1nc2c(c(=O)n(C)c(=O)n2C)n1CCCC(=O)N1CCN(c2ccccc2)CC1 [Compound 4, 8-methoxy-1,3-dimethyl-7-[4-oxo-4-(4-phenylpiperazin-1-yl)butyl]purine-2,6-dione] |  |  |  |  | 23 fold | 36 fold
